# Measured values taken from patent US11260050B2, “Combination of cotinine plus antioxidant for treatment-resistant depression and correction of astrocytes functional deficit induced by depression and other neuropathological” (UNIVERSIDAD SAN SEBASTIAN, priority 2017, dated 2022).
# Columns and labels:
# mice = settings: absence of stress, cotinine treatment for up to eight months; cited from earlier work
# GFAP = test: Immunohistochemical analysis of GFAP expression, hippocampus and frontal cortex (Example 1); type: in vivo, C57BL/6 mice; settings: RS mice treated with cotinine
# Excerpt: After treatments, the hippocampus and frontal cortex were investigated for changes in neuronal and glia cells architecture by Luxol blue staining, and cresyl violet staining. Also, the expression levels of the astrocyte marker GFAP in cells of the same areas by immunohistochemistry.
# After the behavioral testing, mice were euthanized and brains were removed and dissected. Each brain was divided into two parts, left and right hemispheres. The frontal cortex and hippocampus were dissected from left hemisphere on ice and quickly frozen for subsequent analyses at −80° C. The right hemispheres were post-fixed in 10% buffered formalin (pH7.4) for 48 hours, included in paraffin, sliced in 4 μm sections and mounted in slides for histological and immunohistochemical analysis. […]
# Three digital images of the slides immunostained for GFAP immunoreactivity (IR) were obtained of the hippocampus and frontal cortex using a digital camera attached to an inverted microscope at 40× magnification (Micrometrics, MilesCo Scientific, Princeton, Minn., USA) operated by software Micrometrics (Micrometrics SE Premium). To quantitate GFAP immunoreactivity the area of immunostaining was delimited and quantitated using the ImageJ software, provided by the National Institute of Health (NIH, Bethesda, […]., USA).
# [1] = test system: mice subjected to restraint stress; test: Open field test after restraint stress (Example 1, Experiment 1); type: in vivo, C57BL/6 mice; settings: RS mice, IN cotinine 10 mg/ml, 25 min of testing; p=0.058
# Procedure: (§1) Mice were treated immediately after the 21 days of immobilization stress (6 h/day) until euthanasia. Mice (n=5-8/condition) received daily treatments with 1. PBS (phosphate buffer saline, pH 7.4) via intranasal (2×12 μl/nostril), 2. PBS via gavage (50 μl); 3. Cotinine dissolved in PBS via oral (gavage, (0.5 mg/kg; Cot 0.5); 4. Cotinine dissolved in PBS via intranasal (Cot IN, 10 mg/ml, 2×12 μl/nostril).
# (§2) To induce chronic stress, the restraint stress paradigm was used as previously described. Mice are immobilized in 50 ml falcon plastic tubes that were attached to mouse cages. The immobilization proceeded during 6 h from 9:00 AM to 3:00 PM in absence of treatments. Tubes have holes in the opposite side of the tube to allow the animal breathing and urination. Mice were almost completely immobilized for 6 h/day for 21 days after which they were permitted freely to move, eat and drink.
# OF is used to monitor locomotor activity. […] Several parameters including, total distance traveled, speed, rearing behavior and time spent in the center and peripheral zones (20 cm×20 cm) are measured to assess locomotor activity and behavioral changes induced by stress.
# conditioned mice = test: Forced swim test after fear conditioning and extinction (Example 4); type: in vivo, Mice C57BL/6; settings: FC mice after extinction; Tukey: cotinine p<0.001, combination p<0.005, sertraline p<0.05
# Procedure: Three-month-old mice (n=5-6/condition) were weighed and assigned to treatment groups. Mice were treated with vehicle or drugs, starting two h after fear conditioning and daily after behavioral testing until euthanasia. Mice received daily treatments with 1. PBS (phosphate buffer saline, pH 7.4) via intranasal; 2. Cotinine (10 mg/ml) dissolved in PBS via intranasal (IN Cot, 24 μl); 3. Krill oil dissolved in PBS, via intranasal (48 mg/ml, 24 μl); 4. Cotinine (10 mg/ml) plus krill oil dissolved in PBS, via intranasal (48 mg/ml, 24 μl); 5.
# For intranasal delivery, mice were hand-restrained, placed in a supine position, and given two 12 μl drops of cotinine solutions, or PBS, into both nares consecutively. Mice were given an extra 12 μl treatment drop if the subject forcibly ejected or sneezed out the solution. Mice were held supine for 5-10 seconds after delivery to ensure that all fluid was inhaled.
# [2] = test system: mice subjected to restraint stress; test: Light-dark box after restraint stress (Example 1, Experiment 1); type: in vivo, C57BL/6 mice; settings: RS mice treated with cotinine; p=0.035
# Procedure: as §1, §2
# Behavioral analysis was performed using the Any-maze® software (Stoelting CO, USA) to track the activity of animals. Mice were tested for depressive behavior, anxiety, locomotor activity and working memory using the Porsolt's test; Light-dark box (LDB) and the elevated plus Maze (EPM), open field (OF), and Novel object recognition (NOR), respectively.
smiles,measurement,setting,value
"CN1C(=O)CC[C@H]1c1cccnc1 [Cotinine, (5S)-1-methyl-5-(3-pyridyl) pyrrolidin-2-one]",sensory motor abilities or anxiety,mice,did not induce significant differences in sensory motor abilities or anxiety
same,level of GFAP+ cells in the hippocampus and cortex (qualitative analysis),GFAP,recovery of this expression was observed
same,distance traveled in the open field test,[1],44±18 m
same,depressive-like behavior (immobility) in the forced swim test,conditioned mice,significantly decreased depressive-like behavior
same,number of entries to the light zone (light-dark box),[2],almost completely restored the number of entries to the light zone
